Measurements from ChEMBL document CHEMBL1141584, “Synthesis, biological evaluation and molecular modelling studies of methyleneimidazole substituted biaryls as inhibitors of human 17alpha-hydroxylase-17,20-lyase (CYP17). Part I: Heterocyclic modifications of the core structure” (Bioorg Med Chem, 2008).

Key:
[1] = molecular target: T1, Steroid 17-alpha-hydroxylase/17,20 lyase (Homo sapiens, UniProt P05093); experiment: Inhibition of human CYP17 expressed in Escherichia coli co-expressed with NADPH-P450 reductase at 0.2 uM
T1 sequence (P05093 whole entry): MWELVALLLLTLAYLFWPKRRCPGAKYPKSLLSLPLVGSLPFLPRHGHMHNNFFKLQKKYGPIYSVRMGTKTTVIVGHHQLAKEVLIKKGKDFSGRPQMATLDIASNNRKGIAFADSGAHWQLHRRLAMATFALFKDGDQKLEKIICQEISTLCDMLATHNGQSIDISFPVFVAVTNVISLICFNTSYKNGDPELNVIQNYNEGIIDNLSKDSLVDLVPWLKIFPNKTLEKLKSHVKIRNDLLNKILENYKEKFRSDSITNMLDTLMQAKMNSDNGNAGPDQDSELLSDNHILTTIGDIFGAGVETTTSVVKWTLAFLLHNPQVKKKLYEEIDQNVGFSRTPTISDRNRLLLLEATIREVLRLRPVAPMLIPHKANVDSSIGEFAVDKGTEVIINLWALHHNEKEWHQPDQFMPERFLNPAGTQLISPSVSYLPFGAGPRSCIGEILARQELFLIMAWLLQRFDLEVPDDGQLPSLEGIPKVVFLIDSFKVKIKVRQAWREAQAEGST

[2] = molecular target: T1, Steroid 17-alpha-hydroxylase/17,20 lyase; experiment: Inhibition of human CYP17 expressed in Escherichia coli co-expressed with NADPH-P450 reductase at 2 uM
[3] = molecular target: T1, Steroid 17-alpha-hydroxylase/17,20 lyase; experiment: Inhibition of human CYP17 expressed in Escherichia coli co-expressed with NADPH-P450 reductase
CYP3A4 [4] = molecular target: T2, CYP3A4 (Homo sapiens, UniProt P08684); experiment: Inhibition of recombinant CYP3A4 at 10 uM; type: ADME
T2 sequence (P08684 whole entry): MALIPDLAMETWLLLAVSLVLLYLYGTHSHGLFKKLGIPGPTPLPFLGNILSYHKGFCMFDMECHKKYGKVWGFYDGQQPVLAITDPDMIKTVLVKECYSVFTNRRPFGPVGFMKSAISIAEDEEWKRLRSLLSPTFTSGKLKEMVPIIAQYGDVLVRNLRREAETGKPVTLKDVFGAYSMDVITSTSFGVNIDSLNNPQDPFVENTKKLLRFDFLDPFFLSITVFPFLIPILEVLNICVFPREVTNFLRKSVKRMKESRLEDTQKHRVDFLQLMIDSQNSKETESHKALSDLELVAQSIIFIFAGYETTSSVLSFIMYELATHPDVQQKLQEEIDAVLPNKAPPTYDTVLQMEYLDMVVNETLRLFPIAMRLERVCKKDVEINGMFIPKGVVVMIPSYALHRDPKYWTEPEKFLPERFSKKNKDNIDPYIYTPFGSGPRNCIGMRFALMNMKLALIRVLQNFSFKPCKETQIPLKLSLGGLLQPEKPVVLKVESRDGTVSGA

CYP3A4 [5] = molecular target: T2, CYP3A4; experiment: Inhibition of recombinant CYP3A4 at 1 uM; type: ADME
[6] = Total body clearance in Wistar rat at 50 mg/kg, po; type: ADME, organism-based; parameters: dose 50 mg/kg, route oral; details: in vivo
CYP2D6 [7] = molecular target: T3, CYP2D6 (Homo sapiens, UniProt P10635); experiment: Inhibition of recombinant CYP2D6 at 1 uM; type: ADME
T3 sequence (P10635 whole entry): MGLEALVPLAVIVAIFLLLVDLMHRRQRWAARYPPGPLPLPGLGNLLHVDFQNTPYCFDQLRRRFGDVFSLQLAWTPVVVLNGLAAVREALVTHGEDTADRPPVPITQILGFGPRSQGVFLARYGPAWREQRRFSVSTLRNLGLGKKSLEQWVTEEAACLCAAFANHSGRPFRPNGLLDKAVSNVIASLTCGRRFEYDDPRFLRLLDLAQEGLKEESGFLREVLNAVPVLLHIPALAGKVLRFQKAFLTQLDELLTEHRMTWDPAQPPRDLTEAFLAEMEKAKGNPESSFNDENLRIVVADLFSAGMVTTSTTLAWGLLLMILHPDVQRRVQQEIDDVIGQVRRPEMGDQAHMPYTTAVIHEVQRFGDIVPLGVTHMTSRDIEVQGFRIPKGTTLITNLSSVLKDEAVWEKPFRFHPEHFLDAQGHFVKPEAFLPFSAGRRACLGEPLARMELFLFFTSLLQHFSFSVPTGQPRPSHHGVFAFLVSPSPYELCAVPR

CYP2D6 [8] = molecular target: T3, CYP2D6; experiment: Inhibition of recombinant CYP2D6 at 10 uM; type: ADME
[9] = molecular target: T4, Steroid 17-alpha-hydroxylase/17,20 lyase (Rattus norvegicus, UniProt P11715); experiment: Inhibition of Sprague-Dawley rat testicular CYP17
T4 sequence (P11715 whole entry): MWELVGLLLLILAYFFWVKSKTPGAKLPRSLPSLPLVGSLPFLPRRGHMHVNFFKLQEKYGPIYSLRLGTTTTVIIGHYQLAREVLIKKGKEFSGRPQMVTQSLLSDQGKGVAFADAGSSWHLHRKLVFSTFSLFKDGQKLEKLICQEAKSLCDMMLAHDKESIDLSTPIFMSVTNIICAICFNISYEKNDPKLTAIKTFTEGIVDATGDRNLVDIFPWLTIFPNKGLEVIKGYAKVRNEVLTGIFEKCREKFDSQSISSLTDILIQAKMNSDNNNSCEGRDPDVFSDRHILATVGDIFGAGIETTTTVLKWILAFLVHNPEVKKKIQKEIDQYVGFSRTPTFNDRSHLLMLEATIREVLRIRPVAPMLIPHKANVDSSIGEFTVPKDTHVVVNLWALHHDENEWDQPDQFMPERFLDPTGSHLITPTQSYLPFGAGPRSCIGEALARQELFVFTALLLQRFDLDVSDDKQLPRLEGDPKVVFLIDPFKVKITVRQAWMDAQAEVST

CYP2B6 [10] = molecular target: T5, CYP2B6 (Homo sapiens, UniProt P20813); experiment: Inhibition of recombinant CYP2B6 at 1 uM; type: ADME
T5 sequence (P20813 whole entry): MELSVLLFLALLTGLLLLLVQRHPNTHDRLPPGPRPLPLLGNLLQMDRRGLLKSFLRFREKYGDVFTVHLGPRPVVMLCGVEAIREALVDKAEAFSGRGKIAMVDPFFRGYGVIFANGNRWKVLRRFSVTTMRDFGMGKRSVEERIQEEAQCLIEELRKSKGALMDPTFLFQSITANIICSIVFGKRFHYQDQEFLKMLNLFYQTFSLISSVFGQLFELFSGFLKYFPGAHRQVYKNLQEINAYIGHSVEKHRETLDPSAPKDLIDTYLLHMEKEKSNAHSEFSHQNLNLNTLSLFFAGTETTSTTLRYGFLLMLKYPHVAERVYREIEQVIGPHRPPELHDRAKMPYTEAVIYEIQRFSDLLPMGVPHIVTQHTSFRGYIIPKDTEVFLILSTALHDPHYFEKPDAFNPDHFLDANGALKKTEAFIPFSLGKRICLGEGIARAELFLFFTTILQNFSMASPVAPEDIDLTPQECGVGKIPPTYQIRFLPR

[11] = AUC (0 to infinity) in Wistar rat at 50 mg/kg, po; type: ADME, organism-based; parameters: time infinity, dose 50 mg/kg, route oral; details: plasma
[12] = Cmax in Wistar rat at 50 mg/kg, po; type: ADME, organism-based; parameters: dose 50 mg/kg, route oral; details: in vivo
[13] = Tmax in Wistar rat at 50 mg/kg, po; type: ADME, organism-based; parameters: dose 50 mg/kg, route oral; details: in vivo
[14] = Terminal half life in Wistar rat plasma at 50 mg/kg, po; type: ADME, organism-based; parameters: dose 50 mg/kg, route oral
CYP2B6 [15] = molecular target: T5, CYP2B6; experiment: Inhibition of recombinant CYP2B6 at 10 uM; type: ADME
CYP2C19 = CYP2C19 (Homo sapiens, UniProt P33261); experiment: Inhibition of recombinant CYP2C19 at 10 uM; type: ADME
CYP2C19, sequence (P33261 whole entry): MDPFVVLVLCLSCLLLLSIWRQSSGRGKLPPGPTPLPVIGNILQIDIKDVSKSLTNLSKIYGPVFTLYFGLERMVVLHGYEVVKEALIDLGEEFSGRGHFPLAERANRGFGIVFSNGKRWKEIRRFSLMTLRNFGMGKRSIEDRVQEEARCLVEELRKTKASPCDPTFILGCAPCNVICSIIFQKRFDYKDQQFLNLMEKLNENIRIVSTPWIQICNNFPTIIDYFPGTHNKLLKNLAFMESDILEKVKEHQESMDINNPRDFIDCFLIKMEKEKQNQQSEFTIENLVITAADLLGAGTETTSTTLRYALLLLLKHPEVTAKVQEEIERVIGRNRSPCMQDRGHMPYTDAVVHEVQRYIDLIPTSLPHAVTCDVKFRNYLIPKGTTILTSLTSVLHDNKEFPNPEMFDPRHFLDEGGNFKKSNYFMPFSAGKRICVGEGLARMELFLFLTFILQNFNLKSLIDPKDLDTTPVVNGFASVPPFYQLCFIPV

[16] = molecular target: T1, Steroid 17-alpha-hydroxylase/17,20 lyase; experiment: Inhibition of human CYP17 expressed in Escherichia coli co-expressed with NADPH-P450 reductase at 1 uM

inhibition at 0.2 µM [1] [%] | inhibition at 2 µM [2] [%] | Compound | further results
0 | 5 | COc1ccccc1-c1ccc(Cn2ccnc2)cn1 | 
7 | 25 | Fc1ccc(-c2csc(Cn3ccnc3)c2)cc1F | 
0 | 0 | Fc1ccc(-c2ccc(Cn3ccnc3)cn2)cc1F | 
7 | 49 | CC(C)C(O)(c1ccc(-c2ccsc2)cc1)c1c[nH]cn1 (configuration not stated) | 
27 | 84 | CCC(c1ccc(-c2cscc2C)cc1)n1ccnc1 (configuration not stated) | IC50 [3]: 584 nM
5 | 3 | c1cn(Cc2ccc(-c3cncnc3)cc2)cn1 | 
0 | 27 | Cc1cscc1-c1ccc(Cn2ccnc2)cc1 | 
0 | 21 | c1ccc(-c2csc(Cn3ccnc3)c2)cc1 | 
41 | 92 | CCC(c1ccc(-c2cscc2C)cc1F)n1ccnc1 (configuration not stated) | inhibition at 10 µM (CYP3A4 [4]): 97%; IC50 [3]: 236 nM; inhibition at 1 µM (CYP3A4 [5]): 88%
40 | 85 | CCC(c1ccc(-c2ccsc2Cl)cc1)n1ccnc1 (configuration not stated) | inhibition at 10 µM (CYP3A4 [4]): 97%; IC50 [3]: 263 nM; inhibition at 1 µM (CYP3A4 [5]): 87%
0 | 13 | COc1ccc(-c2csc(Cn3ccnc3)c2)cc1 | 
2 | 14 | c1cncc(-c2ccc(Cn3ccnc3)cc2)c1 | 
0 | 20 | Fc1ccc(-c2csc(Cn3ccnc3)c2)cc1 | 
0 | 4 | c1ccc(-c2ccc(Cn3ccnc3)cn2)cc1 | 
 |  | C[C@]12CC[C@H](O)CC1=CC[C@@H]1[C@@H]2CC[C@]2(C)C(c3cccnc3)=CC[C@@H]12 [ABIRATERONE] | inhibition at 10 µM (CYP3A4 [4]): 25%; CL/F [6]: 187 mL/min/kg; inhibition at 1 µM (CYP2D6 [7]): 7%; inhibition at 10 µM (CYP2D6 [8]): 7%; IC50 [9]: 220 nM; inhibition at 1 µM (CYP2B6 [10]): 2%; AUC(0-inf) [11]: 4020 ng·h/mL; Cmax [12]: 592 ng/mL; Tmax [13]: 2 h; half-life [14]: 1.6 h; inhibition at 1 µM (CYP3A4 [5]): 4%; inhibition at 10 µM (CYP2B6 [15]): 11%; inhibition at 10 µM (CYP2C19): 21%
 |  | CC(=O)N1CCN(c2ccc(OCC3COC(Cn4ccnc4)(c4ccc(Cl)cc4Cl)O3)cc2)CC1 (configuration not stated) [KETOCONAZOLE] | inhibition at 1 µM [16]: 19%; inhibition at 1 µM (CYP2B6 [10]): 11%; inhibition at 10 µM (CYP2B6 [15]): 57%; inhibition at 10 µM (CYP2C19): 79%
